Test results reported in PMC12040169 (PLOS Biology, 2025).

assay: in vitro; conditions: human, hela cells, % viability

Point of comparison: `Cc1ccc(-c2cc(-c3ccccc3O)nc(N/N=C/c3cccnc3)n2)cc1` [CBK262308], viability at 28.5 h, 10 µM 85.2%. Against it:
- Cc1ccc(C(CC(=O)N2CCN(Cc3ccccc3)CC2)c2ccccc2)c(O)c1C (stereo not shown) [CBK262214] — higher, 100%
- O=C(c1sc2ccccc2c1Cl)n1cnc2ccccc21 [CBK262216] — higher, 101%
- Cc1[nH]c2ccccc2c1/C=C1/SC(=S)N(CC(=O)O)C1=O [CBK262220] — higher, 118%
- Cc1cc(N(C)CCc2ccccc2)nc2cc(Cl)ccc12 [CBK262221] — higher, 93.9%
- O=C1CCC(=O)N1CC(O)Cn1c2ccc(Cl)cc2c2cc(Cl)ccc21 (stereo not shown) [CBK262222] — higher, 90.5%
- O=C(NNc1nc(-c2ccccc2)cc(-c2ccccc2)n1)Nc1ccccc1 [CBK262223] — higher, 91.3%
- O=C(O)/C(=N\c1cccc2ccccc12)c1ccccc1 [CBK262224] — lower, 75.7%
- Cc1ccc(/C=N/NC(=O)C(C)Oc2ccccc2Br)o1 (stereo not shown) [CBK262226] — higher, 103%
- Cc1ccc(COc2ccc(/C=N/NC(=O)CN3CCCCC3)cc2)cc1 [CBK262227] — higher, 103%
- C/C(=N\NC(=O)CN(c1ccc(C)cc1)S(=O)(=O)c1ccccc1)c1ccc(Cl)cc1 [CBK262229] — higher, 93.3%
- Cc1cc(OCCCNCCO)ccc1Cl [CBK262230] — higher, 95.4%
- COc1cc(/C=N/NC(=O)c2cccnc2)cc([N+](=O)[O-])c1O [CBK262233] — higher, 86.4%
- CCC(Oc1ccccc1)C(=O)Nc1cc(OC)c(Cl)cc1OC (stereo not shown) [CBK262235] — higher, 112%
- COc1ccc(N(CC(=O)Nc2cccnc2)S(=O)(=O)c2ccccc2)cc1 [CBK262236] — higher, 91.6%
- COc1ccc(/C=C/C(C)=C\C(=O)O)c(OC)c1 [CBK262237N] — higher, 94.8%
- Nc1nc2ccccc2n1/N=C/c1ccc([N+](=O)[O-])cc1 [CBK262239] — higher, 88%
- O=C(COc1ccccc1O)NCCN1CCOCC1 [CBK262243C] — lower, 84%
- O=C1C2(c3ccccc3)CN3CN(C2)CC1(c1ccccc1)C3 [CBK262245] — higher, 93.5%
- CN1CCN(S(=O)(=O)c2ccc(Oc3ccc([N+](=O)[O-])cc3)cc2)CC1 [CBK262248] — higher, 105%
- COc1cc(/C=N/Nc2nnn[nH]2)cc2c1OCO2 [CBK262253] — higher, 100%
- Cn1c2ccccc2c2cc(C(O)(CC(=O)CC(O)(c3ccc4c(c3)c3ccccc3n4C)C(F)(F)F)C(F)(F)F)ccc21 (stereo not shown) [CBK262254] — higher, 88%
- Cc1ccc(S(=O)(=O)N2CCOCC2)cc1C(=O)O [CBK262256] — higher, 115%
- CCCCn1c(=O)c(C(=O)Nc2ccccc2S(N)(=O)=O)c(O)c2ccccc21 [CBK262260] — higher, 98.6%
- COc1ccccc1CNCc1ccccn1 [CBK262261] — higher, 89.4%
- O=C(O)/C=C/c1cccc(NS(=O)(=O)c2ccc(C(=O)O)cc2)c1 [CBK262262] — higher, 88%
- C/C(=N/OCC(=O)N/N=C/c1sc2ccccc2c1O)c1ccccc1 [CBK262266] — higher, 96.3%
- Cn1c(=O)c(C(=O)Nc2ccccc2S(N)(=O)=O)c(O)c2ccccc21 [CBK262267] — higher, 85.5%
- COc1cccc(/C=N/NC(=O)C(=O)NCc2ccccn2)c1 [CBK262268] — lower, 84.5%
- Cc1cc2nc(NC(=N)N)nc(C)c2cc1C [CBK262269] — lower, 83.8%
- CCOC(=O)c1ccccc1NS(C)(=O)=O [CBK262271] — higher, 101%
- Cc1ccccc1C(=O)NC(NCC1CCCO1)C(Cl)(Cl)Cl (stereo not shown) [CBK262273] — higher, 91.9%
- COc1ccc(C(=O)/C=C/c2ccc(N3N=C(c4ccccc4)CC3c3ccccc3)cc2)cc1 (stereo not shown) [CBK262274] — higher, 91.7%
- O=C(Nc1nnn[nH]1)C12CC3CC(CC(C3)C1)C2 [CBK262276] — lower, 82.4%
- COc1cc(/C=N/NC(=O)c2ccncc2)ccc1OC(=O)c1cccs1 [CBK262278] — higher, 103%
- COc1ccc(C(=O)NC(NCc2ccco2)C(Cl)(Cl)Cl)cc1 (stereo not shown) [CBK262279] — higher, 119%
- CC(C)=NNC(=O)CN(c1ccc(C)cc1)S(=O)(=O)c1ccccc1 [CBK262280] — higher, 99.4%
- O=C1CC(N2CCN(c3ccccn3)CC2)C(=O)N1CCc1ccccc1 (stereo not shown) [CBK262282] — lower, 77.9%
- Brc1ccc(/C=N\c2ccc3c(c2)ncn3CCn2cnc3cc(/N=C/c4ccc(Br)cc4)ccc32)cc1 [CBK262285] — lower, 83.9%
- COc1ccccc1/C=N/NC(=O)C(=O)NCc1ccccn1 [CBK262286] — higher, 93.7%
- O=C(N/N=C/c1ccc(-c2ccc([N+](=O)[O-])cc2)o1)c1cccnc1 [CBK262287] — higher, 92.3%
- CC(C)CCn1c(=O)c(C(=O)Nc2ccccc2S(N)(=O)=O)c(O)c2ccccc21 [CBK262294] — higher, 104%
- Cc1ccc(Nc2nc(N/N=C/c3ccccc3)nc(N3CCC(Cc4ccccc4)CC3)n2)cc1 [CBK262296] — lower, 76.7%
- O=C(Nc1c(Cl)cccc1Cl)c1ccc(-c2ccccc2)cc1 [CBK262300] — higher, 94.5%
- NC(=O)CCn1c(=S)n(CCC(N)=O)c2ccccc21 [CBK262301] — higher, 86.2%
- O=P(O)(CCc1ccccc1)CN1CCOCC1 [CBK262305] — higher, 104%
- CCOC(=O)c1c(NC(=O)Cc2ccccc2)sc2c1CCC2 [CBK262309] — higher, 88.4%
- Cc1ccccc1-n1c(Cc2ccccc2)nc2c(cnn2-c2ccccc2)c1=O [CBK262310] — higher, 91.6%
- O=C1CCCCCN1CP(=O)(O)CCc1ccccc1 [CBK262313] — higher, 99.7%
- O=C(O)Cc1nn(Cc2ccccc2)c(=O)c2ccccc12 [CBK262315] — higher, 115%
- O=P(O)(CCc1ccncc1)CN1CCOCC1 [CBK262317] — higher, 89.3%
- O=C(Nc1ccccc1)Nc1ccc2c(c1)S(=O)(=O)c1cc(NC(=O)Nc3ccccc3)ccc1-2 [CBK262320] — higher, 94.6%
- N#Cc1c(N)nc2c(c1-c1ccc(Cl)cc1)CCCCCCCCCC2 [CBK262322] — higher, 90.6%
- O=P(O)(CN1CCCCC1)C1CCCCC1O (stereo not shown) [CBK262325] — higher, 87.1%
- O=C(CN1C(=O)CCC1=O)NCCc1ccccc1 [CBK262326] — higher, 98.3%
- O=C1c2ccccc2S(=O)(=O)N1CC(O)Cn1c2ccc(Cl)cc2c2cc(Cl)ccc21 (stereo not shown) [CBK262327] — higher, 101%
- Cc1cccc(C)c1N(CC(=O)O)S(C)(=O)=O [CBK262329] — higher, 102%
- COc1cc(/C=N/NC(=O)CCn2c3ccccc3c3ccccc32)ccc1O [CBK262332] — lower, 73%
- Cc1ccc(C(=O)NCCCNc2ccc(Cl)cc2[N+](=O)[O-])cc1 [CBK262334] — higher, 101%
- O=[N+]([O-])c1ccccc1N/C(=N/S(=O)(=O)c1ccccc1)c1ccccc1 [CBK262336] — higher, 85.8%
- O=C(Nc1cccc(CCc2ccccn2)c1)Nc1cccc2ccccc12 [CBK262337] — higher, 87.7%
- CC(CCCC(C)(C)O)NCCO (stereo not shown) [CBK262340] — higher, 96.3%
- CN1CCC(=NNC(=O)C(=O)NCc2ccco2)CC1 [CBK262341] — lower, 84.6%
- O=C(Cn1c[n+]([N-][N+](=O)[O-])cn1)Nc1ncc(Br)cc1Br [CBK262342] — higher, 90.9%
